# According to US20240358692A1, “TREATMENT OF SCLERODERMA” (Aisa Pharma, Inc., priority 2023, published 2024):
# Test system: participants with SSc-RP
# Assay: SHAQ - Standard Disability Index
# Type: in vivo, human
# From the text: The standard, validated, patient reported outcome measures tool for SSc patients, the Scleroderma Health Assessment Questionnaire (SHAQ), will be used to assess the participant qualify of life. Details are attached in the Appendix. The participant quality of life will be scored, and a disability index calculated for each questionnaire completed by the patient at Screening and each in-clinic visit. The absolute change in participant quality of life from baseline to the end of each dosing period will be calculated similar to frequency data as before.
# The SHAQ is used to calculate a Disability Index to assess the participant qualify of life. The eight categories assessed by the Disability Index are 1) dressing and grooming, 2) arising, 3) eating, 4) walking, 5) hygiene, 6) reach, 7) grip, and 8) common daily activities. For each of these categories, patients report the amount of difficulty they have in performing two or three specific activities.
# There are four possible responses for the Disability Index questions: • Without any difficulty=0 • With some difficulty=1 • With much difficulty=2 • Unable to do=3 • The highest score reported by the patient for any component question of the eight categories determines the score for that category. • If a component question is left blank or the response is too ambiguous to assign a score, then the score for that category is determined by the remaining completed question(s). • If all component questions are blank or if more than one answer is given, then follow up with the respondent is required. • If the respondent's mark is between the response columns, then move it to the closest one. If it's directly between the two, move it to the higher one.
# This question results in a new set of category scores that are computed by adjusting the score for each category, if necessary, based on the patient's use of an aid or device or assistance for that category. If either devices and/or help from another person are checked for a category, the score is set to “2”, unless the score is already “3” (i.e., scores of “0” or “1” are increased to “2”). For example, if the highest score for the dressing category is “1”, and the patient says they use a device for dressing, the computed category score would be “2”. The sum of the computed categories scores is then calculated and divided by the number of categories answered. This gives a score in the 0 to 3 range.
# [1] = pooled Cilnidipine 10 mg and Cilnidipine 10 mg + Tadalafil 5 mg
# [2] = pooled Cilnidipine 20 mg and Cilnidipine 20 mg + Tadalafil 5 mg
# [3] = pooled cilnidipine 10 mg and 20 mg arms (combination: + tadalafil 5 mg)
smiles,measurement,setting,value
COCCOC(=O)C1=C(C)NC(C)=C(C(=O)OC/C=C/c2ccccc2)C1c1cccc([N+](=O)[O-])c1 (centres unmarked) [Cilnidipine],"SHAQ Standard Disability Index, Percent Change from Baseline, Mean (SD)","Pooled Cilnidipine (N = 8), Day 12, PP Population, Part A",−16.00 (34.189) %
same,% change in Standard Disability Index,"Pooled Cilnidipine (n = 7), SHAQ, mITT Part A",−25%
same,"% Δ from baseline, standard disability mean",Pooled cilnidipine (n=4),−25%
same,Standard Disability Index Change from Baseline Max,[1],0.38
same,Standard Disability Index Change from Baseline Mean,[1],−0.021
same,Standard Disability Index Change from Baseline Median,[1],0.000
same,Standard Disability Index Change from Baseline Min,[1],"−0.31,"
same,Standard Disability Index Change from Baseline Q3,[1],0.000
same,Standard Disability Index Day 12 Max,[1],1.50
same,Standard Disability Index Day 12 Min,[1],"0.00,"
same,Standard Disability Index Day 12 Q1,[1],"0.188,"
same,Standard Disability Index Day 12 Q3,[1],1.125
same,Standard Disability Index Percent Change from Baseline Max,[1],150.0%
same,Standard Disability Index Percent Change from Baseline Mean,[1],7.50%
same,Standard Disability Index Percent Change from Baseline Median,[1],0.00%
same,Standard Disability Index Percent Change from Baseline Min,[1],"−62.5, %"
same,Standard Disability Index Percent Change from Baseline Q1,[1],"−25.00, %"
same,Standard Disability Index Percent Change from Baseline Q3,[1],0.00%
same,Standard Disability Index Change from Baseline Max,[2],0.13
same,Standard Disability Index Change from Baseline Mean,[2],−0.092
same,Standard Disability Index Change from Baseline Median,[2],0.000
same,Standard Disability Index Change from Baseline Min,[2],"−0.52,"
same,Standard Disability Index Change from Baseline Q1,[2],"−0.250,"
same,Standard Disability Index Day 12 Max,[2],1.75
same,Standard Disability Index Day 12 Median,[2],0.250
same,Standard Disability Index Day 12 Min,[2],"0.00,"
same,Standard Disability Index Day 12 Q1,[2],"0.000,"
same,Standard Disability Index Day 12 Q3,[2],0.857
same,Standard Disability Index Percent Change from Baseline Max,[2],100.0%
same,Standard Disability Index Percent Change from Baseline Median,[2],−33.33%
same,Standard Disability Index Percent Change from Baseline Min,[2],"−66.7, %"
same,Standard Disability Index Percent Change from Baseline Q1,[2],"−37.66, %"
same,Standard Disability Index Percent Change from Baseline Q3,[2],7.69%
same,Standard Disability Index Change from Baseline Max,[3],0.00
same,Standard Disability Index Change from Baseline Mean,[3],−0.054
same,Standard Disability Index Change from Baseline Median,[3],0.000
same,Standard Disability Index Change from Baseline Min,[3],"−0.25,"
same,Standard Disability Index Change from Baseline Q3,[3],0.000
same,Standard Disability Index Day 12 Max,[3],1.50
same,Standard Disability Index Day 12 Median,[3],0.125
same,Standard Disability Index Day 12 Min,[3],"0.00,"
same,Standard Disability Index Day 12 Q1,[3],"0.000,"
same,Standard Disability Index Percent Change from Baseline Max,[3],0.0%
same,Standard Disability Index Percent Change from Baseline Mean,[3],−25.00%
same,Standard Disability Index Percent Change from Baseline Min,[3],"−66.7, %"
same,Standard Disability Index Percent Change from Baseline Q1,[3],"−50.00, %"
same,Standard Disability Index Percent Change from Baseline Q3,[3],0.00%
